Assay results published in publication PMC8976068, “Structural basis to repurpose boron-based proteasome inhibitors Bortezomib and Ixazomib as β-lactamase inhibitors” (Scientific Reports, 2022).
Read-outs that look alike come from different tables or passages of the source.

Assays:
CTX-M-14 β-lactamase [1] = target: T1, CTX-M-14 β-lactamase (Klebsiella pneumoniae, UniProt A0A2S1JJX2); experiment: crystal structure ([…] Å, soaking); also purified enzyme inhibition assay, cefotaxime hydrolysis; assay type: biochemical
T1 sequence (A0A2S1JJX2 entry or part of it): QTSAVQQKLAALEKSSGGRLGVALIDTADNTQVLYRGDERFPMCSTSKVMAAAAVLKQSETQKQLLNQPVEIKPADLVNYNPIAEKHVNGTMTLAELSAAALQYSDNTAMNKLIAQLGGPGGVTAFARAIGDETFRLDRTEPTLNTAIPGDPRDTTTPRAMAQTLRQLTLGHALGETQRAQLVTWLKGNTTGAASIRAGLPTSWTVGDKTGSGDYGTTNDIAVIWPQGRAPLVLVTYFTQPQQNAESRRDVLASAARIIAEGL

CTX-M-14 β-lactamase [2] = target: T1, CTX-M-14 β-lactamase; experiment: as above; assay type: biochemical; remark: listed apart in the source

| SMILES | IC50 (CTX-M-14 β-lactamase [1]) [µM] | IC50 (CTX-M-14 β-lactamase [2]) [µM] |
| --- | --- | --- |
| CC(C)C[C@H](NC(=O)[C@H](Cc1ccccc1)NC(=O)c1cnccn1)B(O)O [Bortezomib] | 67 ± 1.4 | – |
| CC(C)C[C@H](NC(=O)CNC(=O)c1cc(Cl)ccc1Cl)B(O)O [Ixazomib] | – | 13 ± 1.2 |
